Laboratory results as given in PMC3513945 (Nature chemical biology, 2012).

Key:
[1] = molecular target: T1, DAGLβ (Mus musculus, UniProt Q91WC9); assay: inhibition of DAGLβ in transfected HEK293T lysate; type: biochemical
T1 sequence (Q91WC9 1-669): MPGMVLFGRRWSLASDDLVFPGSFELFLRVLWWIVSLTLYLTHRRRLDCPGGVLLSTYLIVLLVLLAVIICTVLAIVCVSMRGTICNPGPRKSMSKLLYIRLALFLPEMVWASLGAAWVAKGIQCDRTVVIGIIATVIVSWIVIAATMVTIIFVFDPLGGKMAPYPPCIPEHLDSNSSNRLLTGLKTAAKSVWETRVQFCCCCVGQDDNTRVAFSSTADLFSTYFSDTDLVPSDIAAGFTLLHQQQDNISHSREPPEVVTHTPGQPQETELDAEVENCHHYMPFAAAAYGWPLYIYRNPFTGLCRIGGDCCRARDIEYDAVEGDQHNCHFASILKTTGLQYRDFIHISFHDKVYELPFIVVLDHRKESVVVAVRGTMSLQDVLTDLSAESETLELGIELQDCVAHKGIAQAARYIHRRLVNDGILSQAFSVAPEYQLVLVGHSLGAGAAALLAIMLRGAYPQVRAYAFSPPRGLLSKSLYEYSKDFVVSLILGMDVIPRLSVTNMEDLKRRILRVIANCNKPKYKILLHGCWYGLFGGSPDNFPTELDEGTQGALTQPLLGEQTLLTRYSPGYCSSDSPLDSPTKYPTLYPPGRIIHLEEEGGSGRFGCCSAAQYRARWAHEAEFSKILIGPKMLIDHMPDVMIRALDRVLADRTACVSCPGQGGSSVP

[2] = molecular target: T2, human DAGLβ (Homo sapiens, UniProt Q8NCG7); assay: in vitro inhibition of human DAGLβ activity; type: cell-based
T2 sequence (Q8NCG7 1-672): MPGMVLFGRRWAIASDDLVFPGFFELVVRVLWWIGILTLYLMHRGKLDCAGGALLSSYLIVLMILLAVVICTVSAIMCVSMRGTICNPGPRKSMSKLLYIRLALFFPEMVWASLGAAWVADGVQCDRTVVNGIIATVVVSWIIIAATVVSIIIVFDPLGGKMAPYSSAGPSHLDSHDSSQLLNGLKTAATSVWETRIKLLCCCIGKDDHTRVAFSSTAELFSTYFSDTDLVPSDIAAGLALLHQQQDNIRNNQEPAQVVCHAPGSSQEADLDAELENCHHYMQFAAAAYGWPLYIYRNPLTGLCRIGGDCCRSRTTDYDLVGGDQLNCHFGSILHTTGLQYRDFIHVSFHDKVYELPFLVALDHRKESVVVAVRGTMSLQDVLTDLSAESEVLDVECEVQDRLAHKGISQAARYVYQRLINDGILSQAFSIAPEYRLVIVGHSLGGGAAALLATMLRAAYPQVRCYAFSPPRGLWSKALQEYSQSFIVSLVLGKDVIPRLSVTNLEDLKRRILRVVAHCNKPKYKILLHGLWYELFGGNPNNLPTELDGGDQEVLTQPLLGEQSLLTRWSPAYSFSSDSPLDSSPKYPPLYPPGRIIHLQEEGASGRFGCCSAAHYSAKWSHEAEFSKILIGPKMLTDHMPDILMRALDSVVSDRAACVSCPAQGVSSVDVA

[3] = molecular target: T3, ABHD6 (Mus musculus, UniProt Q8R2Y0); assay: competitive ABPP in mouse brain proteome; type: biochemical
T3 sequence (Q8R2Y0 1-336): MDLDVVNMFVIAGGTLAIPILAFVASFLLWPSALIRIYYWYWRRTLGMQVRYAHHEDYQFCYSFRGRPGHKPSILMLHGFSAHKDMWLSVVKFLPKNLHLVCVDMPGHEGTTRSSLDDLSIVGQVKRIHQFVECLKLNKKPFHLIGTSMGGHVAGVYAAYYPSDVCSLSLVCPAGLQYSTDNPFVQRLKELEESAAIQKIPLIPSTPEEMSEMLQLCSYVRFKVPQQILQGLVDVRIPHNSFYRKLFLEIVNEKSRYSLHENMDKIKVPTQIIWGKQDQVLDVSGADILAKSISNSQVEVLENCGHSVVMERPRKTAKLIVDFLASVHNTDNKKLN

[4] = molecular target: T1, DAGLβ; assay: competitive ABPP on DAGLβ-transfected HEK293T proteome; type: biochemical

Compound | IC50 [1] [nM] | IC50 [2] [nM] | IC50 [3] [nM] | IC50 [4] [nM]
O=C(N1CCCCC1Cc1ccccc1)n1cc(-c2ccc(Br)cc2)nn1 (stereo not shown) [compound 31, KT116] | 30 |  |  | 
O=C(N1CCCCC1Cc1ccccc1)n1cc(-c2ccc(-c3ccccc3)cc2)nn1 (stereo not shown) [compound 32, KT109] |  | 580 | 16 | 42
